Results as given in PubChem BioAssay AID248 (DTP/NCI, 2004).
Where “and” joins values, the source holds several entries; their conditions need not be identical. Equal entries are not always repeated. Toxic doses and inconclusive results are not listed. No stated cut-off is given here; in the data, active means T/C of 150% or more; inactive means T/C below 125%.

Tested on: L1210 leukemia ip in BDF1 mice, survival T/C
Assay: NCI In Vivo Anticancer Drug Screen. Data for tumor model L1210 Leukemia (intraperitoneal) in B6D2F1 (BDF1) mice
Details: endpoint: mean survival time, higher = longer survival
Method in brief: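 Transplantable tumor model; survival measured in treated vs vehicle control mice. Value = treated/control.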

[1] = dose: 100.0 mg/kg/injection, schedule: Q04DX003 (ip), vehicle: Klucel (hydroxypropylcellulose) (HPC)
[2] = dose: 200.0 mg/kg/injection, schedule: Q04DX003 (ip), vehicle: Klucel (hydroxypropylcellulose) (HPC)
[3] = dose: 400.0 mg/kg/injection, schedule: Q04DX003 (ip), vehicle: Klucel (hydroxypropylcellulose) (HPC)
[4] = dose: 100.0 mg/kg/injection, schedule: Q01DX009 (ip), vehicle: saline with Tween-80
[5] = dose: 100.0 mg/kg/injection, schedule: Q04DX003 (ip), vehicle: saline with Tween-80
[6] = dose: 200.0 mg/kg/injection, schedule: Q04DX003 (ip), vehicle: saline with Tween-80
[7] = dose: 400.0 mg/kg/injection, schedule: Q04DX003 (ip), vehicle: saline with Tween-80
[8] = dose: 100.0 mg/kg/injection, schedule: Q01DX009 (ip), vehicle: Klucel (hydroxypropylcellulose) (HPC)
[9] = dose: 200.0 mg/kg/injection, schedule: Q01DX009 (ip), vehicle: Klucel (hydroxypropylcellulose) (HPC)
[10] = dose: 400.0 mg/kg/injection, schedule: Q01DX009 (ip), vehicle: Klucel (hydroxypropylcellulose) (HPC)
[11] = dose: 100.0 mg/kg/injection, schedule: Q01DX001 (ip), vehicle: carboxymethylcellulose (CMC)
[12] = dose: 25.0 mg/kg/injection, schedule: Q01DX009 (ip), vehicle: saline with Tween-80
[13] = dose: 50.0 mg/kg/injection, schedule: Q01DX009 (ip), vehicle: saline with Tween-80
[14] = dose: 100.0 mg/kg/injection, schedule: Q01DX001 (ip), vehicle: saline with Tween-80
[15] = dose: 100.0 mg/kg/injection, schedule: Q04DX002 (ip), vehicle: saline with Tween-80
[16] = dose: 200.0 mg/kg/injection, schedule: Q01DX001 (ip), vehicle: saline with Tween-80
[17] = dose: 200.0 mg/kg/injection, schedule: Q04DX002 (ip), vehicle: saline with Tween-80
[18] = dose: 400.0 mg/kg/injection, schedule: Q04DX002 (ip), vehicle: saline with Tween-80

Measured: T/C

CCCCNC(=S)S
inactive: [1] 95 % of control | [2] 98 % of control | [3] 104 % of control

Cc1ccc(C(=O)C2CC2)c(C)c1
inactive: [4] 105 % of control | [5] 96 % of control | dose: 200.0 mg/kg/injection, schedule: Q01DX009 (ip), vehicle: saline with Tween-80 98 % of control | [6] 95 % of control | dose: 400.0 mg/kg/injection, schedule: Q01DX009 (ip), vehicle: saline with Tween-80 109 % of control | [7] 93 % of control

Cc1ccc(NC(=O)c2ccc(Cl)cc2)cc1Cl
inactive: [8] 105 % of control | [1] 94 % of control | [9] 98 % of control | [2] 94 % of control | [10] 92 % of control | [3] 104 % of control

CCOc1ccc([N+](=O)[O-])cc1C1N(Cc2ccccc2OC)CCCN1Cc1ccccc1OC
inactive: [11] 98 % of control | dose: 200.0 mg/kg/injection, schedule: Q01DX001 (ip), vehicle: carboxymethylcellulose (CMC) 98 % of control | dose: 400.0 mg/kg/injection, schedule: Q01DX001 (ip), vehicle: carboxymethylcellulose (CMC) 104 % of control

CC(=O)OC1=CC(=O)c2ccccc2C1=O
inactive: dose: 5.0 mg/kg/injection, schedule: Q01DX001 (ip), vehicle: carboxymethylcellulose (CMC) 101 % of control | dose: 10.0 mg/kg/injection, schedule: Q01DX001 (ip), vehicle: carboxymethylcellulose (CMC) 101 % of control | dose: 20.0 mg/kg/injection, schedule: Q01DX001 (ip), vehicle: carboxymethylcellulose (CMC) 101 % of control | dose: 40.0 mg/kg/injection, schedule: Q01DX001 (ip), vehicle: carboxymethylcellulose (CMC) 107 % of control | dose: 80.0 mg/kg/injection, schedule: Q01DX001 (ip), vehicle: carboxymethylcellulose (CMC) 107 % of control | [11] 104 % of control

COc1ccc(OC(=O)Nc2ccccc2[N+](=O)[O-])cc1
inactive: [5] 106 % of control | [6] 94 % of control | [7] 95 % of control

NC(=S)N/N=C/C(=O)O
inactive: dose: 100.0 mg/kg/injection, schedule: Q01DX001 (ip), vehicle: saline 91 % of control | dose: 200.0 mg/kg/injection, schedule: Q01DX001 (ip), vehicle: saline 89 % of control | dose: 400.0 mg/kg/injection, schedule: Q01DX001 (ip), vehicle: saline 89 % of control

CC1CCCC(C)N1NC1=NCCO1 (configuration not stated)
inactive: [12] 96 % of control | [13] 98 % of control | [4] 97 % of control | [5] 100 % of control

c1ccc(-c2csc3[n+]2CCN3)cc1
inactive: dose: 50.0 mg/kg/injection, schedule: Q01DX001 (ip), vehicle: saline 99 % of control

CC[CH2][Pb]([CH2]CC)([CH2]CC)[O]C(=O)CCl
inactive: dose: 3.0 mg/kg/injection, schedule: Q01DX009 (ip), vehicle: Klucel (hydroxypropylcellulose) (HPC) 106 % of control | dose: 6.0 mg/kg/injection, schedule: Q01DX009 (ip), vehicle: Klucel (hydroxypropylcellulose) (HPC) 101 % of control | dose: 12.5 mg/kg/injection, schedule: Q01DX009 (ip), vehicle: Klucel (hydroxypropylcellulose) (HPC) 96 % of control

CC1Oc2ccccc2OC1NC1=NCCO1 (configuration not stated)
inactive: dose: 100.0 mg/kg/injection, schedule: Q01DX001 (ip), vehicle: Klucel (hydroxypropylcellulose) (HPC) 97 % of control | [1] 100 % of control | dose: 200.0 mg/kg/injection, schedule: Q01DX001 (ip), vehicle: Klucel (hydroxypropylcellulose) (HPC) 103 % of control | [2] 100 % of control | dose: 400.0 mg/kg/injection, schedule: Q01DX001 (ip), vehicle: Klucel (hydroxypropylcellulose) (HPC) 102 % of control | [3] 108 % of control

Cc1ccc(NC(=S)NC(=O)/C=C/c2ccccc2)cc1Cl
inactive: [12] 94 % of control | [13] 96 % of control and 86 % of control | [14] 87 % of control | [15] 97 % of control | [16] 87 % of control | [17] 87 % of control and 89 % of control | [18] 87 % of control and 89 % of control

CCCCOc1ccc(/C=N/NC(=S)Nc2ccccc2)cc1
inactive: [8] 97 % of control | [9] 98 % of control | [10] 95 % of control

CCOC(=O)C1(C(=O)O)CC2C(C)C=CC(C)C2C1 (configuration not stated)
inactive: [1] 100 % of control | [2] 94 % of control | [3] 91 % of control

O=C1c2ccccc2C(=O)N1CN1CCOCC1
inactive: [14] 105 % of control | [16] 94 % of control | dose: 400.0 mg/kg/injection, schedule: Q01DX001 (ip), vehicle: saline with Tween-80 98 % of control

CCOC(=O)c1oc2ccc(OC)c(C(C)=O)c2c1C
inactive: [15] 103 % of control | [17] 107 % of control | [18] 94 % of control

CCC1=C(c2ccc(OC)cc2)CCC(C(=O)O)C1C (configuration not stated)
inactive: dose: 6.0 mg/kg/injection, schedule: Q01DX Z (ip), vehicle: saline 100 % of control | dose: 12.0 mg/kg/injection, schedule: Q01DX Z (ip), vehicle: saline 96 % of control | dose: 25.0 mg/kg/injection, schedule: Q01DX Z (ip), vehicle: saline 102 % of control | dose: 50.0 mg/kg/injection, schedule: Q01DX Z (ip), vehicle: saline 100 % of control | dose: 100.0 mg/kg/injection, schedule: Q01DX Z (ip), vehicle: saline 102 % of control | dose: 200.0 mg/kg/injection, schedule: Q01DX Z (ip), vehicle: saline 100 % of control | dose: 400.0 mg/kg/injection, schedule: Q01DX Z (ip), vehicle: saline 110 % of control | dose: 800.0 mg/kg/injection, schedule: Q01DX Z (ip), vehicle: saline 98 % of control and 120 % of control

O=c1ccn(O)cc1
inactive: dose: 100.0 mg/kg/injection, schedule: Q04DX002 (ip), vehicle: other 96 % of control | dose: 200.0 mg/kg/injection, schedule: Q04DX002 (ip), vehicle: other 100 % of control | dose: 400.0 mg/kg/injection, schedule: Q04DX002 (ip), vehicle: other 88 % of control

O=S1OCC2(CO1)COS(=O)OC2 (configuration not stated)
inactive: dose: 1.56 mg/kg/injection, schedule: Q01DX009 (ip), vehicle: saline 103 % of control | dose: 1.56 mg/kg/injection, schedule: Q04DX003 (ip), vehicle: saline 95 % of control | dose: 3.12 mg/kg/injection, schedule: Q01DX009 (ip), vehicle: saline 98 % of control | dose: 3.12 mg/kg/injection, schedule: Q04DX003 (ip), vehicle: saline 101 % of control | dose: 6.25 mg/kg/injection, schedule: Q04DX003 (ip), vehicle: saline 104 % of control

CCOC(=O)C(O)c1ccccc1 (configuration not stated)
inactive: [5] 98 % of control | [6] 98 % of control | [7] 98 % of control

O=c1c2ccccc2[nH]c(=S)n1-c1ccc(Cl)cc1
inactive: [8] 100 % of control | [5] 100 % of control | [9] 111 % of control | [6] 100 % of control | [10] 97 % of control | [7] 97 % of control

COc1ccc(/C(C#N)=C/c2ccncc2)cc1OC
inactive: dose: 100.0 mg/kg/injection, schedule: Q01DX001 (ip), vehicle: other 105 % of control | dose: 200.0 mg/kg/injection, schedule: Q01DX001 (ip), vehicle: other 94 % of control | dose: 400.0 mg/kg/injection, schedule: Q01DX001 (ip), vehicle: other 97 % of control

O=S(=O)(/N=C1C=C(N2CCOCC2)/C(=N/S(=O)(=O)c2ccccc2)C=C/1N1CCOCC1)c1ccccc1
inactive: dose: 75.0 mg/kg/injection, schedule: Q04DX003 (ip), vehicle: Klucel (hydroxypropylcellulose) (HPC) 97 % of control | dose: 150.0 mg/kg/injection, schedule: Q04DX003 (ip), vehicle: Klucel (hydroxypropylcellulose) (HPC) 89 % of control | dose: 300.0 mg/kg/injection, schedule: Q04DX003 (ip), vehicle: Klucel (hydroxypropylcellulose) (HPC) 100 % of control

CC(C)c1ccc(C(c2ccc(C(C)C)cc2)c2ccc(C(C)C)cc2)cc1
inactive: [14] 104 % of control | [16] 91 % of control

O=C1CCC(c2cccc([N+](=O)[O-])c2)=NN1
inactive: [8] 89 % of control | [9] 93 % of control | [10] 89 % of control

CC(=O)OCCOc1cccc(C)c1
inactive: dose: 100.0 mg/kg/injection, schedule: Q04DX002 (ip), vehicle: saline 114 % of control | dose: 200.0 mg/kg/injection, schedule: Q04DX002 (ip), vehicle: saline 96 % of control | dose: 400.0 mg/kg/injection, schedule: Q04DX002 (ip), vehicle: saline 107 % of control
